Read-outs that look alike come from different tables or passages of the source.
Tests used:
Format in all cases: cell-based, Escherichia coli
[1] = system: EKO-35 strains producing different efflux pumps (EKO-35 araC::X); assay: Checkerboard synergy (FICI) of PAβN or NMP with antibiotics
In short: (§1)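 Checkerboard broth microdilution per CLSI in MHB II, inocula by colony resuspension; MIC taken as lowest concentration with no growth by OD600. FICI = (CA/MICA)+(CB/MICB), drug A being PAβN or NMP and drug B the antibiotic; synergy <0.5, additive >0.5–1.0, indifferent >1.0–2.0, antagonism >2.0.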

ΔtolC = system: ΔtolC
In short: as §1

EKO-35 acrBD408A = system: EKO-35 acrBD408A
In short: as §1

ΔtolC-Pore = system: ΔtolC-Pore
In short: as §1

wild-type E. coli K-12 = system: wild-type E. coli K-12
In short: as §1

EKO-35 = system: EKO-35
In short: as §1

[2] = system: EKO-35-Pore acrBD408A (functionally inactive AcrB variant); assay: Checkerboard synergy (FICI), porinated strain
In short: as §1

[3] = system: EKO-35 porinated strain expressing acrB; assay: Checkerboard synergy (FICI), porinated strain
In short: as §1

[4] = strain EKO-35 acrB, NMP + antibiotic
[5] = EKO-35 acrBD408A, NMP + antibiotic
[6] = EKO-35 acrBD408A, PAβN + antibiotic
[7] = strain EKO-35 acrBD408A, NMP + antibiotic
[8] = strain ΔtolC Pore, NMP + antibiotic
[9] = strain EKO-35, NMP + antibiotic
[10] = strain EKO-35 acrBD408A Pore, NMP + antibiotic
[11] = EKO-35 acrB Pore, NMP + antibiotic
[12] = strain EKO-35 acrB Pore, NMP + antibiotic

CC(=O)NC[C@H]1CN(c2ccc(N3CCOCC3)c(F)c2)C(=O)O1 [linezolid] was tested. Which Effect ([1]; EKO-35 acrB, NMP + antibiotic) did it give?
The Effect was “Synergistic”.

What about the FICI ([1]; EKO-35 acrB, NMP + antibiotic) of the same compound?
The FICI was 0.281.

And the Effect ([1]; EKO-35 acrB, PAβN + antibiotic)?
The Effect was “Synergistic”.

What about the “MICb Combined” value ([1]; EKO-35 acrB, antibiotic in combination with PAβN) of the same compound?
Its value is 16 µg/mL.

What about the Effect [1, 4] of the same compound?
The Effect was “Synergistic (Synergy (FICI ≤0.5))”.

What about the FICI [1, 4] of the same compound?
Its FICI is 0.281.

What about the “MICb Combined” value ([1]; strain EKO-35 acrB, antibiotic in combination with NMP) of the same compound?
Its value is 8 µg/mL.

And the Effect (ΔtolC; strain ΔtolC, NMP + antibiotic)?
The Effect was “— (indifferent (FICI >1.0))”.

What about the FICI (ΔtolC; strain ΔtolC, NMP + antibiotic) of the same compound?
The FICI was 2.000.

And the “MICb Alone” value (ΔtolC; strain ΔtolC, antibiotic alone)?
Its value is 8 µg/mL.

And the “MICb Combined” value (ΔtolC; strain ΔtolC, antibiotic in combination with NMP)?
Its value is 8 µg/mL.

What about the FICI (ΔtolC; ΔtolC, NMP + antibiotic) of the same compound?
Its FICI is 2.000.

And the Effect (ΔtolC; ΔtolC, PAβN + antibiotic)?
The Effect was “Additive”.

What about the FICI (ΔtolC; ΔtolC, PAβN + antibiotic) of the same compound?
The FICI was 0.750.

And the “MICb Alone” value (ΔtolC; ΔtolC, antibiotic alone (PAβN checkerboard))?
The value was 8 µg/mL.

And the “MICb Combined” value (ΔtolC; ΔtolC, antibiotic in combination with PAβN)?
Its value is 2 µg/mL.

What about the Effect (EKO-35 acrBD408A; [5]) of the same compound?
The Effect was “Additive”.

And the FICI (EKO-35 acrBD408A; [5])?
The FICI was 0.516.

What about the Effect (EKO-35 acrBD408A; [6]) of the same compound?
Its Effect is “Additive”.

And the FICI (EKO-35 acrBD408A; [6])?
Its FICI is 0.750.

And the “MICb Alone” value (EKO-35 acrBD408A; EKO-35 acrBD408A, antibiotic alone (PAβN checkerboard))?
The value was 16 µg/mL.

What about the “MICb Combined” value (EKO-35 acrBD408A; EKO-35 acrBD408A, antibiotic in combination with PAβN) of the same compound?
The value was 4 µg/mL.

What about the Effect (EKO-35 acrBD408A; [7]) of the same compound?
The Effect was “Additive (additive (FICI >0.5-1.0))”.

What about the FICI (EKO-35 acrBD408A; [7]) of the same compound?
The FICI was 0.516.

And the “MICb Alone” value (EKO-35 acrBD408A; strain EKO-35 acrBD408A, antibiotic alone)?
Its value is 16 µg/mL.

What about the “MICb Combined” value (EKO-35 acrBD408A; strain EKO-35 acrBD408A, antibiotic in combination with NMP) of the same compound?
Its value is 8 µg/mL.

What about the Effect (ΔtolC-Pore; [8]) of the same compound?
Its Effect is “— (indifferent (FICI >1.0))”.

What about the FICI (ΔtolC-Pore; [8]) of the same compound?
The FICI was 1.000.

What about the “MICb Alone” value (ΔtolC-Pore; strain ΔtolC Pore, antibiotic alone) of the same compound?
The value was 8 µg/mL.

And the “MICb Combined” value (ΔtolC-Pore; strain ΔtolC Pore, antibiotic in combination with NMP)?
Its value is 4 µg/mL.

And the FICI (ΔtolC-Pore; ΔtolC Pore, NMP + antibiotic)?
Its FICI is 1.000.

What about the Effect (ΔtolC-Pore; ΔtolC Pore, PAβN + antibiotic) of the same compound?
The Effect was “Additive”.

And the FICI (ΔtolC-Pore; ΔtolC Pore, PAβN + antibiotic)?
Its FICI is 0.563.

And the “MICb Alone” value (ΔtolC-Pore; ΔtolC Pore, antibiotic alone (PAβN checkerboard))?
Its value is 8 µg/mL.

And the “MICb Combined” value (ΔtolC-Pore; ΔtolC Pore, antibiotic in combination with PAβN)?
The value was 0.5 µg/mL.

And the Effect (wild-type E. coli K-12; K-12, NMP + antibiotic)?
Its Effect is “Synergistic”.

And the FICI (wild-type E. coli K-12; K-12, NMP + antibiotic)?
The FICI was 0.375.

What about the Effect (wild-type E. coli K-12; K-12, PAβN + antibiotic) of the same compound?
Its Effect is “Synergistic”.

And the FICI (wild-type E. coli K-12; K-12, PAβN + antibiotic)?
The FICI was 0.125.

And the “MICb Alone” value (wild-type E. coli K-12; K-12, antibiotic alone (PAβN checkerboard))?
Its value is 256 µg/mL.

What about the “MICb Combined” value (wild-type E. coli K-12; K-12, antibiotic in combination with PAβN) of the same compound?
The value was 16 µg/mL.

And the Effect (wild-type E. coli K-12; strain K-12, NMP + antibiotic)?
Its Effect is “Synergistic (Synergy (FICI ≤0.5))”.

And the FICI (wild-type E. coli K-12; strain K-12, NMP + antibiotic)?
The FICI was 0.375.

What about the “MICb Alone” value (wild-type E. coli K-12; strain K-12, antibiotic alone) of the same compound?
The value was 256 µg/mL.

And the “MICb Combined” value (wild-type E. coli K-12; strain K-12, antibiotic in combination with NMP)?
Its value is 32 µg/mL.

And the Effect (EKO-35; EKO-35, NMP + antibiotic)?
The Effect was “Additive”.

And the FICI (EKO-35; EKO-35, NMP + antibiotic)?
Its FICI is 0.531.

And the Effect (EKO-35; EKO-35, PAβN + antibiotic)?
Its Effect is “Additive”.

And the FICI (EKO-35; EKO-35, PAβN + antibiotic)?
Its FICI is 0.750.

What about the “MICb Alone” value (EKO-35; EKO-35, antibiotic alone (PAβN checkerboard)) of the same compound?
Its value is 16 µg/mL.

And the “MICb Combined” value (EKO-35; EKO-35, antibiotic in combination with PAβN)?
Its value is 4 µg/mL.

And the “interaction of PAβN in combination with the labelled antibiotic (FICI)” value (EKO-35; efflux-deficient strains EKO-35, EKO-35 acrBD408A, ΔtolC)?
The value was “not synergistic”.

And the Effect (EKO-35; [9])?
Its Effect is “Additive (additive (FICI >0.5-1.0))”.

And the FICI (EKO-35; [9])?
The FICI was 0.531.

And the “MICb Alone” value (EKO-35; strain EKO-35, antibiotic alone)?
The value was 16 µg/mL.

And the “MICb Combined” value (EKO-35; strain EKO-35, antibiotic in combination with NMP)?
The value was 8 µg/mL.

And the FICI ([2]; EKO-35 acrBD408A Pore, NMP + antibiotic)?
The FICI was 2.000.

What about the FICI ([2]; EKO-35 acrBD408A Pore, PAβN + antibiotic) of the same compound?
Its FICI is 1.000.

And the “MICb Alone” value ([2]; EKO-35 acrBD408A Pore, antibiotic alone (PAβN checkerboard))?
The value was 8 µg/mL.

And the “MICb Combined” value ([2]; EKO-35 acrBD408A Pore, antibiotic in combination with PAβN)?
The value was 4 µg/mL.

What about the Effect [2, 10] of the same compound?
The Effect was “— (indifferent (FICI >1.0))”.

And the FICI [2, 10]?
The FICI was 2.000.

And the “MICb Alone” value ([2]; strain EKO-35 acrBD408A Pore, antibiotic alone)?
The value was 8 µg/mL.

What about the “MICb Combined” value ([2]; strain EKO-35 acrBD408A Pore, antibiotic in combination with NMP) of the same compound?
Its value is 8 µg/mL.

What about the Effect [3, 11] of the same compound?
Its Effect is “Synergistic”.

What about the FICI [3, 11] of the same compound?
The FICI was 0.250.

What about the Effect ([3]; EKO-35 acrB Pore, PAβN + antibiotic) of the same compound?
The Effect was “Synergistic”.

And the “MICb Alone” value ([3]; EKO-35 acrB Pore, antibiotic alone (PAβN checkerboard))?
The value was 128 µg/mL.

And the “MICb Combined” value ([3]; EKO-35 acrB Pore, antibiotic in combination with PAβN)?
Its value is 8 µg/mL.

What about the “potentiation of the labelled compound by NMP” value ([3]; porinated strain producing AcrB) of the same compound?
Its value is “enhancing the activity”.

And the Effect [3, 12]?
Its Effect is “Synergistic (Synergy (FICI ≤0.5))”.

And the FICI [3, 12]?
The FICI was 0.250.

What about the “MICb Alone” value ([3]; strain EKO-35 acrB Pore, antibiotic alone) of the same compound?
The value was 128 µg/mL.

What about the “MICb Combined” value ([3]; strain EKO-35 acrB Pore, antibiotic in combination with NMP) of the same compound?
Its value is 16 µg/mL.

Reference: patent US20230407243A1, “GENETIC PLATFORM TO INVESTIGATE THE FUNCTIONS OF BACTERIAL DRUG EFFLUX PUMPS” (priority 2022, published 2023)
